{"source": "patent US8809539B2", "about": "“Dicarboxylic acid derivatives as S1P1 receptor agonists” (Bioprojet, priority 2007, dated 2014)", "key": {"Edg1 (S1P1 receptor)": {"molecular_target": "T1, Edg1 (S1P1 receptor) (Homo sapiens, UniProt P21453)", "T1 construct": "expressed in transfected cells; host or cells: HEK 293 or CHOK1 (membranes)", "T1 sequence (P21453 whole entry)": "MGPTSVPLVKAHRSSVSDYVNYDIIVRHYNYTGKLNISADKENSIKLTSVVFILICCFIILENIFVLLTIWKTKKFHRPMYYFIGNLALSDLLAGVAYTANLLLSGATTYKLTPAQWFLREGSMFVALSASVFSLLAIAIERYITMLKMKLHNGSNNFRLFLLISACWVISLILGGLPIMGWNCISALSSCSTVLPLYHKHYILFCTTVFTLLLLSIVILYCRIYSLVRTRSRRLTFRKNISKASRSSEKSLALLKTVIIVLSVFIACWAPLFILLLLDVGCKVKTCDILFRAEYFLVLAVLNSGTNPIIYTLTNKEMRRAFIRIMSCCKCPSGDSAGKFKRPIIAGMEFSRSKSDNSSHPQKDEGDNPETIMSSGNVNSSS", "assay": "GTP-γ-35S binding, agonist activity at Edg1 (S1P1)", "format": "biochemical", "conditions": "membranes of transfected HEK 293 or CHOK1 cells, [35S]GTP-γ-S; read-out: In-Vitro potency EC50 (nM) Edg1", "description": "Human S1P1-5 receptor subtypes were stably expressed in high levels in HEK 293 or CHOK1 cells following transfection with corresponding plasmid constructs. Although the native cells somewhat respond to S1P, the level of expression and responsiveness of the antibiotic-resistant transfected cell lines that were selected is much higher.\nWhen cultivated cells reached 80% confluence, they were collected and, after lysis, cell membranes were collected by centrifugation and washed in buffer containing antiproteases.\nGTP-γ-^35S binding was performed using ˜5 μg protein of cell membranes suspended in 50 mM tris-HCl pH 7.5 containing 10 mM MgCl2, 100 mM NaCl and 10 μM GDP. The radioligand was 0.025 nM [^35S] GTP-γ-S and non specific binding determined in the presence of 10 μM non-radioactive GTP-γ-S. S1P and receptor agonists enhance the specific binding whereas inverse agonists reduce it. The maximal stimulation elicited by S1P was taken as a reference to define full or partial agonism and calculate the intrinsic activity (i.a.) of compounds."}, "[1]": {"system": "blood lymphocytes (S1P1 receptors in vivo)", "assay": "Lymphopenia in vivo after oral administration", "conditions": "Swiss mice; for ED50: Mus musculus, Lymphocyte, at 24 h", "experimental": "Lymphopenia was assessed in vivo. Experiments were done in Swiss mice strain (n=5 per condition). Compounds were administered orally in suspension in methyl-cellulose 1% from 1 h 30 until 48 hours before the experiments. Blood was taken on anesthetized animal (4% isoflurane) and samples collected in EDTA-containing vacuum tubes. After 5 minutes stirring, cells were counted using ABC vet hemocytometer (Scil vet animal Care)"}, "Edg5": {"molecular_target": "T2, Edg5 (Homo sapiens, UniProt O95136)", "T2 construct": "expressed in transfected cells; host or cells: HEK 293 or CHOK1 (membranes)", "T2 sequence (O95136 whole entry)": "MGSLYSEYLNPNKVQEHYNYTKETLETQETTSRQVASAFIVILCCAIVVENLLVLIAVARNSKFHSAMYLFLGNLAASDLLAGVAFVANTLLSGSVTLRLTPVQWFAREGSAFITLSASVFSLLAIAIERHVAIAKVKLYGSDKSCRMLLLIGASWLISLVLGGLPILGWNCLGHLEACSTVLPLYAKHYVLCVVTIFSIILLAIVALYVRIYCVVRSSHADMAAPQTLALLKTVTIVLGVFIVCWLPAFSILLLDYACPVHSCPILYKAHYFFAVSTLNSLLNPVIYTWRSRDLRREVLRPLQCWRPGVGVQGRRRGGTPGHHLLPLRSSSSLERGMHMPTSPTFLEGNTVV", "assay": "GTP-γ-35S binding, agonist activity at Edg5", "format": "biochemical", "conditions": "membranes of transfected HEK 293 or CHOK1 cells, [35S]GTP-γ-S; read-out: In-Vitro potency EC50 (nM) Edg5", "description": "(§1) Human S1P1-5 receptor subtypes were stably expressed in high levels in HEK 293 or CHOK1 cells following transfection with corresponding plasmid constructs. Although the native cells somewhat respond to S1P, the level of expression and responsiveness of the antibiotic-resistant transfected cell lines that were selected is much higher. When cultivated cells reached 80% confluence, they were collected and, after lysis, cell membranes were collected by centrifugation and washed in buffer containing antiproteases. GTP-γ-^35S binding was performed using ˜5 μg protein of cell membranes suspended in 50 mM tris-HCl pH 7.5 containing 10 mM MgCl2, 100 mM NaCl and 10 μM GDP. The radioligand was 0.025 nM [^35S] GTP-γ-S and non specific binding determined in the presence of 10 μM non-radioactive GTP-γ-S. S1P and receptor agonists enhance the specific binding whereas inverse agonists reduce it. The maximal stimulation elicited by S1P was taken as a reference to define full or partial agonism and calculate the intrinsic activity (i.a.) of compounds."}, "Edg3 (S1P3 receptor)": {"molecular_target": "T3, Edg3 (S1P3 receptor) (Homo sapiens, UniProt Q99500)", "T3 construct": "expressed in transfected cells; host or cells: HEK 293 or CHOK1 (membranes)", "T3 sequence (Q99500 whole entry)": "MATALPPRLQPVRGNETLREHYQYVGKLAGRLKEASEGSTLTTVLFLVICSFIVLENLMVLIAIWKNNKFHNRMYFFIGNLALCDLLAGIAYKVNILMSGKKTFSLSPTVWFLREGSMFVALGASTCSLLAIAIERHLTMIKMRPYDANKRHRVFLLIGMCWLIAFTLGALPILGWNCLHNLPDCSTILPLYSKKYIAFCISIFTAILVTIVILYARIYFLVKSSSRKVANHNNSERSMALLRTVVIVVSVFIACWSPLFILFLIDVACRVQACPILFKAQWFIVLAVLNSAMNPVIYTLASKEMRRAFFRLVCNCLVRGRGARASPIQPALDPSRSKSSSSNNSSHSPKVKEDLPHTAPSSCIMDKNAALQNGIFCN", "assay": "GTP-γ-35S binding, agonist activity at Edg3 (S1P3)", "format": "biochemical", "conditions": "membranes of transfected HEK 293 or CHOK1 cells, [35S]GTP-γ-S; read-out: In-Vitro potency EC50 (nM) Edg3", "description": "as §1"}}, "data": [{"smiles": "COC(=O)C1(C(=O)O)CC(N(C)Cc2ccc(-c3noc(-c4ccc(CC(C)C)cc4)n3)cc2)C1", "note": "(single isomer, unassigned) [Example 54]", "values": [{"measurement": "EC50", "setting": "Edg1 (S1P1 receptor)", "result": 11.8, "unit": "nM"}]}, {"smiles": "COC(=O)C1(C(=O)O)CCN(Cc2ccc(-c3noc(-c4ccc(CC(C)C)cc4)n3)cc2)CC1", "note": "[Example 8]", "values": [{"measurement": "ED50", "setting": "[1]", "result": 3.5, "unit": "mg/kg"}]}, {"smiles": "O=C(O)C1(C(=O)O)CCN(Cc2ccc(-c3noc(-c4ccc(-c5ccccc5)cc4)n3)cc2)CC1", "note": "[Example 15]", "values": [{"measurement": "EC50", "setting": "Edg1 (S1P1 receptor)", "result": 0.7, "unit": "nM"}, {"measurement": "EC50", "setting": "Edg5", "result": "> 1000", "unit": "nM"}, {"measurement": "EC50", "setting": "Edg3 (S1P3 receptor)", "result": "> 1000", "unit": "nM"}]}, {"smiles": "CO/N=C(/c1ccco1)c1nc(-c2ccc(CN3CCC(C(=O)O)(C(=O)O)CC3)cc2)no1", "note": "[Example 22]", "values": [{"measurement": "EC50", "setting": "Edg1 (S1P1 receptor)", "result": 2.2, "unit": "nM"}, {"measurement": "EC50", "setting": "Edg5", "result": "> 1000", "unit": "nM"}, {"measurement": "EC50", "setting": "Edg3 (S1P3 receptor)", "result": "> 1000", "unit": "nM"}]}, {"smiles": "C=C(C)[C@@H]1CC=C(c2nc(-c3ccc(CN4CCC(C(=O)O)(C(=O)O)CC4)cc3)no2)CC1", "note": "[Example 25]", "values": [{"measurement": "EC50", "setting": "Edg1 (S1P1 receptor)", "result": 1.7, "unit": "nM"}]}, {"smiles": "Cl.O=C(O)C1(C(=O)O)CC(NCc2ccc(-c3noc(-c4ccc(-c5ccccc5)c(F)c4)n3)cc2)C1", "note": "[Example 49]", "values": [{"measurement": "% lymphopenia", "setting": "[1]; at 10 mg/kg, after 24 h", "result": "at 10 mg/kg 86% lymphopenia after 24 h"}]}, {"smiles": "CC(C)(C)C(=O)COC(=O)C1(C(=O)O)CCN(Cc2ccc(-c3noc(-c4ccc(-c5ccccc5)c(F)c4)n3)cc2)CC1", "note": "[Example 62, 1-{4-[5-(2-fluorobiphenyl-4-yl)[1,2,4]oxadiazol-3-yl]benzyl}-piperidine-4,4-dicarboxylic acid (3,3-dimethyl-2-oxobutyl)ester]", "values": [{"measurement": "EC50", "setting": "Edg1 (S1P1 receptor)", "result": 6.3, "unit": "nM"}, {"measurement": "ED50", "setting": "[1]", "result": 0.03, "unit": "mg/kg"}]}]}
